Reference: BindingDB's records for doi:10.1021/jm020093q (Brown University, 2002)

Assay: Concentration required for 50% Inhibition of activity against Yersinia Protein-tyrosine phosphatase
Work on `O=C(O)C(=O)c1ccc(O)cc1` [(4-Hydroxy-phenyl)-oxo-acetic acid] yielded an IC50 of 200 µM. Compound `O=C(O)C(=O)c1ccc(OCc2cccc(COc3ccc(C(=O)C(=O)O)cc3)c2)cc1` [{4-[3-(4-Oxalyl-phenoxymethyl)-benzyloxy]-phenyl}-oxo-acetic acid] has an IC50 of 4.1 µM. For `O=C(O)C(=O)c1ccc(OCc2cc(COc3ccc(C(=O)C(=O)O)cc3)cc(COc3ccc(C(=O)C(=O)O)cc3)c2)cc1` [{4-[3,5-Bis-(4-oxalyl-phenoxymethyl)-benzyloxy]-phenyl}-oxo-acetic acid], the IC50 was 1.7 µM. `O=C(O)C(=O)c1ccc(OCc2ccc(COc3ccc(C(=O)C(=O)O)cc3)cc2)cc1` [{4-[4-(4-Oxalyl-phenoxymethyl)-benzyloxy]-phenyl}-oxo-acetic acid] showed an IC50 of 0.7 µM. With `O=C(O)C(=O)c1ccc(OCc2ccccc2COc2ccc(C(=O)C(=O)O)cc2)cc1` [{4-[2-(4-Oxalyl-phenoxymethyl)-benzyloxy]-phenyl}-oxo-acetic acid] the IC50 was 8.5 µM.
